Series [1] in a line: Multi-compartmental brain PK model fitted to rat plasma and microdialysis (brainECF, CSF) data. The class given is in vivo. The note with it: parameter estimate (RSE, %); for clearance: male, Wistar, plasma, intravenous infusion, read-out: CLPL, clearance from the central compartment. How it is done:
An overview of experimental data for nine compounds with different physicochemical characteristics used for model development is provided in Table I. The physicochemical characteristics of the nine compounds are provided in Table SI.
Animal study protocols were approved by the Animal Ethics Committee of Leiden University and all animal experiments were performed in accordance with the Dutch Law of Animal Experimentation (for approval numbers see Table SII). […] Between surgery and experiments, the animals were kept individually in Makrolon type three cages for 7 days to recover from surgical procedures.
Rats were anesthetized (5% isoflurane for induction, 1–2% as maintenance), and subsequently received cannulas in the femoral artery for serial blood sampling, and in the femoral vein for drug administration, respectively. Subsequently, microdialysis guides were inserted into different brain locations. The animals were allowed to recover for 1 week before the experiments were performed. One day before the experiment, the microdialysis dummies were replaced by microdialysis probes. For details on guides, probes and locations see Table SII.
Experiments generally started at 9:00 a.m. to minimize the influence of circadian rhythms. Microdialysis probes were continuously flushed with microdialysis perfusion fluid (PF) until equilibration before the start of drug administration. Drugs were administered at t = 0 h by intravenous infusion through the cannula implanted in the femoral vein. […] The general procedure of microdialysis is depicted in Fig. 1.
Separate models describing plasma and brain concentration-time profiles for all nine compounds were developed whereby plasma- and brain-related parameters were estimated simultaneously. A naïve pooling approach was used ([37]), i.e. inter-individual variability in each compound’s data was not quantified, because of the highly standardized experimental settings combined with the homogeneous nature of the animals within each study.
The structural model that was used as a starting point was based on our previously developed models ([23]–[25]).
First, a combined drug dispersion parameter was estimated to capture the CSF and ECF flow and turbulence flow of the drug molecules ([38],[39]).
Second, drug transfer across the BCSFB was excluded.
We evaluated for each drug the validity of the changes to the basic model with regard to a single or two different flow rates for drug dispersion and drug transport at the BCSFB.

The next series deals with MRPs, OATs and OATPs. Briefly: Effect of co-administered probenecid on drug exchange at the BBB and BCSFB. The class given is in vivo. The note with it: rat.
On the set-up of series [2]: method as in DrugBank (http://www.drugbank.ca/); PSA: unit not given beside the values. The note with it: ref DrugBank (http://www.drugbank.ca/), cited from earlier work.
The conditions of series [3]: cited from earlier work; for fP (%), free fraction in plasma: rat data; for plasma protein binding (% bound): used to calculate free fraction in plasma.
Details of series [4]: method as in PMID 4150300. The note with it: human; cited from earlier work.
Series [5] in a line: Fraction unbound in plasma (rat data). The class given is in vitro ADME. The note with it: rat pooled plasma, ultrafiltration; read-out: fP (%), free fraction in plasma.
Procedure: To determine the free fraction of paliperidone and risperidone in plasma samples, Centrifree Ultrafiltration Devices from Merck Millipore (Amsterdam, The Netherlands) were used to separate the free from the protein bound risperidone and paliperidone in pooled plasma samples. Both the ultrafiltrate and the original pooled plasma sample (without ultrafiltration step) were measured. The free fraction was calculated according to the following Eq. 1:1 Freefraction=Ultrafiltrateconcentration/Pooledplasmaconcentration
Another series concerns P-gp. The note with it: rat; for Impact of active transport on QPL_ECF (covariate effect of inhibitor): with GF120918 or tariquidar, estimate (RSE, %).
The mark [6] stands for this setting: with probenecid, estimate (RSE, %).

Read-outs that look alike come from different tables or passages of the source. Marks after values point to notes of the source that are not given here.

On to `CN(Cc1cnc2nc(N)nc(N)c2n1)c1ccc(C(=O)N[C@@H](CCC(=O)O)C(=O)O)cc1` [Methotrexate], for which, in series [1], the clearance was 8.12 mL/min; the “QDIFF, drug dispersion rate in brain and CSF” value (shortened to “QDIFF, drug dispersion rate”) is 0.0598 (9.30) mL/min; the “VPER1, distribution volume of the peripheral compartment 1” value (shortened to “VPER1, distribution volume”) is given as 210 (7.20) mL; the “VPER2, distribution volume of the peripheral compartment 2” value is 114 (6.60) mL. Besides, in series [1], the “VPL, distribution volume of the central compartment” value (“VPL, distribution volume” below) is on record as 51.2 (20.3) mL. The “QDIFF, drug dispersion rate” value in series [1] (listed as methotrexate) is recorded as 0.0598 mL/min. In the series with MRPs, OATs and OATPs, the “increase of QPL_ECF in the presence of the inhibitor of MRPs, OATs and OATPs” value is 409%. In the series on MRPs, OATs and OATPs (setting [6]), the “Impact of active transport on QLV_PL (covariate effect of inhibitor)” value is given as 0.410 (16.0)^a and the “Impact of active transport on QPL_ECF (covariate effect of inhibitor)” value is on record as 4.09 (3.7)^a. Further, in series [2], the “log D (pH 7.4)” value was -2.5, the “No. of H acceptors” value is reported as 12, the “No. of H donors” value is on record as 5 and the PSA is on record as 211. Moreover, in series [2], the “pKa (Acid)” value is recorded as 3.4 and the “pKa (Base)” value is 2.8. Besides, the “fP (%), free fraction in plasma” value in series [3] (ref Westerhout, 2014) was 45%.

On to `CC(=O)Nc1ccc(O)cc1` [Acetaminophen], for which, in series [1], the “QDIFF, drug dispersion rate” value is listed as 0.0556 (10.3) mL/min; the “VPER1, distribution volume” value is on record as 219 (8.90) mL; the “VPL, distribution volume” value is on record as 65.7 (25.4) mL; the “fraction; percentage of the drug which is reabsorbed by enterohepatic circulation” value is 93.3(1.20) %. In addition, in series [2], the “log D (pH 7.4)” value was 0.5, the “No. of H acceptors” value is 2, the “No. of H donors” value is 2 and the PSA was 49. Besides, the “pKa (Base)” value in series [2] was -4.4. Moreover, in series [3] (ref Westerhout, 2011), the “fP (%), free fraction in plasma” value was 81%. For the same compound, the “fp, free fraction in plasma” value in series [4] was 85%.

In the case of `CCN1CCC[C@H]1CNC(=O)c1c(OC)ccc(Br)c1OC` [Remoxipride], in series [2], the “log D (pH 7.4)” value is on record as 0.7, the “No. of H acceptors” value is 4, the “No. of H donors” value is recorded as 1 and the PSA is on record as 51. For the same compound, in series [2], the log partition coefficient (log P) (usually a log measure of how a compound divides between an organic and an aqueous phase) was 2.1; the “pKa (Acid)” value is on record as 13.1; the “pKa (Base)” value is recorded as 8.4. The “fP (%), free fraction in plasma” value in series [3] (ref Widman, 1993) is reported as 74%. For the same compound, in series [3], the “plasma protein binding (% bound)” value is given as 26%.

Regarding `Cc1nc2n(c(=O)c1CCN1CCC(c3noc4cc(F)ccc34)CC1)CCCC2` [Risperidone], the clearance in series [1] was 465 mL/min. In addition, the fraction unbound in series [5] is 0.07. For the same compound, in series [2], the “No. of H acceptors” value was 4, the “No. of H donors” value is 0 and the PSA is listed as 62.

Regarding `O=C1NC(=O)C(c2ccccc2)(c2ccccc2)N1` [Phenytoin], in series [1], the clearance is 44.7 mL/min; the “QDIFF, drug dispersion rate” value is given as 0.0133 (13.0) mL/min; the “VPER1, distribution volume” value was 5320 (7.80) mL; the “VPL, distribution volume” value is 2890 (7.90) mL. Further, the “QDIFF, drug dispersion rate” value in series [1] (listed as phenytoin) was 0.0133 mL/min. Further, in the series with P-gp, the “increase of QPL_ECF in the presence of P-gp inhibitors” value (from here on “increase … of P-gp inhibitors”) was found to be 35.5% and the “Impact of active transport on QPL_ECF (covariate effect of inhibitor)” value is reported as 0.355 (25.1)^b. In series [2], the “No. of H acceptors” value was 2, the “No. of H donors” value is 2 and the PSA is 58. Also, in series [3], the “plasma protein binding (% bound)” value is reported as 91%.

On to `Cc1nc2n(c(=O)c1CCN1CCC(c3noc4cc(F)ccc34)CC1)CCCC2O` (stereo not drawn) [Paliperidone], for which, in series [1], the clearance was 192 mL/min; the “QDIFF, drug dispersion rate” value is 0.0248 (10.7) mL/min; the “VPL, distribution volume” value is on record as 28400 (8.00) mL. In addition, the fraction unbound in series [5] was determined as 0.08. Besides, in the series on P-gp, the “increase … of P-gp inhibitors” value is given as 43.4% and the “Impact of active transport on QPL_ECF (covariate effect of inhibitor)” value is 0.434 (11.4)^b. Further, in series [2], the “log D (pH 7.4)” value is 2.1, the “No. of H acceptors” value is 5, the “No. of H donors” value is 1 and the PSA is recorded as 82. In series [2], the “log P” value is given as 1.8 and the “pKa (Base)” value is listed as 8.8.

`CC(C)NCC(O)COc1ccc(CC(N)=O)cc1` (stereo not drawn) [Atenolol]: in series [2], the “No. of H acceptors” value is reported as 4 and the “No. of H donors” value is listed as 3.

`C=C[C@H]1C[N@@]2CC[C@H]1C[C@@H]2[C@@H](O)c1ccnc2ccc(OC)cc12` [Quinidine]: the “QDIFF, drug dispersion rate” value in series [1] is 0.0237 (2.40) mL/min. For the same compound, in the series on P-gp, the “increase … of P-gp inhibitors” value is listed as 443% and the “Impact of active transport on QPL_ECF (covariate effect of inhibitor)” value is recorded as 4.43 (2.80)^b. Besides, in series [2], the “No. of H acceptors” value is on record as 4, the “No. of H donors” value is reported as 1 and the PSA was 46. In series [3] (ref Westerhout, 2013), the “fP (%), free fraction in plasma” value is on record as 14%.

On to `CN1CC[C@]23c4c5ccc(O)c4O[C@H]2[C@@H](O)C=C[C@H]3[C@H]1C5` [Morphine], for which, in series [2], the “No. of H acceptors” value is listed as 4 and the “No. of H donors” value is 2.

These data come from article PMC5236087, “A Generic Multi-Compartmental CNS Distribution Model Structure for 9 Drugs Allows Prediction of Human Brain Target Site Concentrations” (Pharmaceutical Research, 2016).
